The supplement of paper PMC10307832

What was measured:
Assay in all cases: relative viability (nuclei count vs DMSO), 5 days (fraction); higher = more cells survive
[1] = compound: CC1=C(C(=NN1)C)CC2=C(C3=C(S2)N(C(=O)N(C3=O)C)CC(C)C)C(=O)N4C[C@@H](CO4)O + Nc1ncn([C@H]2C[C@H](O)[C@@H](CO)O2)c(=O)n1 [Decitabine] (partner 2 µM)
Outline: (§1)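 Lung cancer cell lines were seeded in 1536-well plates and dosed by pin tool the next day, with either a single drug or a fixed anchor-drug dose combined with five library-drug doses (not always all listed) spaced in √10 steps. Five days later, one step fixed the cells and stained their nuclei (final 0.05% Triton X-100, 1% formaldehyde, 1 ug/ml Hoechst), and nuclei were counted on 4× images. Relative viability is the nuclei count in treated wells divided by the count in vehicle wells, and each value is the median of duplicate plates.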

[2] = compound: CC1=C(C(=NN1)C)CC2=C(C3=C(S2)N(C(=O)N(C3=O)C)CC(C)C)C(=O)N4C[C@@H](CO4)O + N=C(N)NC(=N)NCCc1ccccc1 [Phenformin] (partner 250 µM)
Outline: as §1

[3] = compound: CC1=C(C(=NN1)C)CC2=C(C3=C(S2)N(C(=O)N(C3=O)C)CC(C)C)C(=O)N4C[C@@H](CO4)O + CCNC(=O)c1noc(-c2cc(C(C)C)c(O)cc2O)c1-c1ccc(CN2CCOCC2)cc1 [Luminespib] (partner 0.01 µM)
Outline: as §1

IDH-C35 + Linsitinib = compound: Cc1ccccc1C(C(=O)NC1CCCCC1)N(C(=O)Cn1ccnc1C)c1cccc(F)c1 [IDH-C35] + C[C@]1(O)C[C@@H](c2nc(-c3ccc4ccc(-c5ccccc5)nc4c3)c3c(N)nccn32)C1 [Linsitinib] (partner 1 µM)
Outline: as §1

Cell Line	relative viability ([1]; first compound 0.0025 µM)	relative viability ([1]; first compound 0.007906 µM)	relative viability ([1]; first compound 0.025 µM)	relative viability ([1]; first compound 0.07906 µM)	relative viability ([1]; first compound 0.25 µM)	relative viability ([2]; first compound 0.0025 µM)	relative viability ([2]; first compound 0.007906 µM)	relative viability ([2]; first compound 0.025 µM)	relative viability ([2]; first compound 0.07906 µM)	relative viability ([2]; first compound 0.25 µM)	relative viability ([3]; first compound 0.0025 µM)	relative viability ([3]; first compound 0.007906 µM)	relative viability ([3]; first compound 0.025 µM)	relative viability ([3]; first compound 0.07906 µM)	relative viability ([3]; first compound 0.25 µM)	relative viability (IDH-C35 + Linsitinib; first compound 0.08 µM)	relative viability (IDH-C35 + Linsitinib; first compound 0.253 µM)	relative viability (IDH-C35 + Linsitinib; first compound 0.8 µM)	relative viability (IDH-C35 + Linsitinib; first compound 2.53 µM)	relative viability (IDH-C35 + Linsitinib; first compound 8 µM)
NCI-H2342	0.74	0.784	0.81	0.693	0.799	0.493	0.532	0.398	0.384	0.401	0.768	0.79	0.855	0.784	0.602	–	–	–	–	–
SK-MES-1	0.428	0.384	0.394	0.381	0.449	0.701	0.671	0.629	0.686	0.704	1.01	0.782	0.969	0.846	0.888	1.15	0.986	1.05	0.957	0.99
HCC-366	0.297	0.417	0.399	0.365	0.372	0.622	0.574	0.669	0.606	0.693	–	–	–	–	–	0.619	0.647	0.553	0.601	0.606
201T	0.87	0.866	0.795	0.865	0.82	0.468	0.383	0.426	0.472	0.426	1.04	1.1	1.05	1.04	1.05	1.03	1.06	1.01	0.992	0.955
HCC-827	0.216	0.34	0.323	0.408	0.302	0.379	0.408	0.425	0.407	0.399	0.748	0.445	0.56	0.513	0.482	0.99	0.889	0.98	0.837	1
NCI-H647	0.48	0.44	0.298	0.535	0.321	0.655	0.369	0.393	0.555	0.53	0.135	0.138	0.171	0.325	0.163	1.03	1.29	1.18	1.1	1.1
NCI-H2023	0.23	0.255	0.211	0.231	0.244	0.382	0.437	0.361	0.431	0.412	0.868	0.945	0.725	0.603	0.737	0.719	0.612	0.712	0.646	0.557
NCI-H520	0.476	0.448	0.45	0.423	0.371	0.501	0.167	0.192	0.179	0.198	0.211	0.24	0.217	0.199	0.185	0.915	0.969	1	0.888	0.907
RERF-LC-KJ	0.852	0.739	0.766	0.656	0.678	0.434	0.46	0.431	0.428	0.481	1.25	1.36	1.22	1.16	1.32	0.873	0.861	0.871	0.906	0.904
A-427	0.592	0.576	0.623	0.605	0.604	0.301	0.264	0.24	0.375	0.349	0.949	1.19	0.921	1.03	0.957	1.13	1.17	1.07	1.1	1.18
NCI-H441	0.215	0.255	0.298	0.267	0.272	0.902	0.943	0.799	0.847	0.865	0.413	0.405	0.326	0.365	0.269	0.589	0.518	0.404	0.651	0.633
NCI-H1703	–	–	–	–	–	–	–	–	–	–	–	–	–	–	–	0.821	0.787	0.632	0.778	0.536
NCI-H1792	0.483	0.489	0.408	0.451	0.517	0.259	0.173	0.127	0.172	0.155	0.458	0.488	0.416	0.338	0.379	0.522	0.508	0.486	0.555	0.66
Calu-6	–	–	–	–	–	–	–	–	–	–	–	–	–	–	–	0.993	0.928	0.961	0.932	0.88
SK-LU-1	0.524	0.475	0.448	0.561	0.618	0.338	0.234	0.191	0.202	0.223	0.187	0.177	0.182	0.183	0.182	0.999	1.03	1.07	1.22	1.1
PC-3 [JPC-3]	0.843	0.787	0.9	0.843	0.996	0.467	0.461	0.477	0.461	0.447	0.801	0.601	0.699	0.773	0.786	0.939	0.985	0.96	0.969	0.936
EMC-BAC-2	1.03	1.01	1.03	1.03	1.03	0.538	0.548	0.518	0.478	0.601	1.17	1.23	1.2	1.32	1.29	0.797	0.799	0.798	0.777	0.812
LK-2	0.261	0.397	0.268	0.237	0.273	0.304	0.321	0.195	0.187	0.263	0.219	0.148	0.223	0.202	0.186	0.679	0.465	0.43	0.746	0.619
NCI-H2126	0.575	0.561	0.564	0.512	0.603	0.583	0.526	0.523	0.529	0.585	0.959	0.845	0.878	0.892	0.951	0.765	0.667	0.712	0.726	0.703
NCI-H3122	0.393	0.454	0.47	0.448	0.389	0.385	0.365	0.364	0.392	0.375	0.088	0.101	0.0902	0.0646	0.11	0.991	0.971	0.972	1.01	1.02

Cell Line	relative viability ([1]; first compound 0.0025 µM)	relative viability ([1]; first compound 0.007906 µM)	relative viability ([1]; first compound 0.025 µM)	relative viability ([1]; first compound 0.07906 µM)	relative viability ([1]; first compound 0.25 µM)	relative viability ([2]; first compound 0.0025 µM)	relative viability ([2]; first compound 0.007906 µM)	relative viability ([2]; first compound 0.025 µM)	relative viability ([2]; first compound 0.07906 µM)	relative viability ([2]; first compound 0.25 µM)	relative viability ([3]; first compound 0.0025 µM)	relative viability ([3]; first compound 0.007906 µM)	relative viability ([3]; first compound 0.025 µM)	relative viability ([3]; first compound 0.07906 µM)	relative viability ([3]; first compound 0.25 µM)	relative viability (IDH-C35 + Linsitinib; first compound 0.08 µM)	relative viability (IDH-C35 + Linsitinib; first compound 0.253 µM)	relative viability (IDH-C35 + Linsitinib; first compound 0.8 µM)	relative viability (IDH-C35 + Linsitinib; first compound 2.53 µM)	relative viability (IDH-C35 + Linsitinib; first compound 8 µM)
NCI-H1975	0.37	0.41	0.393	0.444	0.423	0.401	0.426	0.401	0.389	0.376	0.237	0.294	0.168	0.16	0.147	0.854	0.937	0.93	0.92	0.878
NCI-H1944	0.452	0.46	0.462	0.404	0.448	0.184	0.222	0.186	0.195	0.175	0.81	1.11	0.714	0.698	0.801	1.07	1.29	1.27	1.09	1.1
LU99A	0.784	0.979	0.825	0.901	0.976	0.84	1.06	0.798	0.898	0.927	0.337	0.297	0.203	0.224	0.237	0.569	0.536	0.506	0.593	0.6
SW 1573	0.529	0.519	0.634	0.534	0.504	0.239	0.236	0.115	0.123	0.117	0.32	0.322	0.443	0.213	0.332	0.78	0.752	0.832	0.821	0.678
HCC-78	0.658	0.774	0.644	0.636	0.631	0.795	0.842	0.574	0.671	0.575	–	–	–	–	–	0.54	0.495	0.497	0.382	0.453
NCI-H1299	–	–	–	–	–	–	–	–	–	–	–	–	–	–	–	1.11	0.969	0.976	1	0.957
NCI-H1650	0.365	0.424	0.388	0.292	0.309	0.536	0.473	0.457	0.506	0.46	0.188	0.192	0.203	0.192	0.217	–	–	–	–	–
ChaGo-K-1	0.506	0.509	0.508	0.536	0.553	0.467	0.451	0.407	0.447	0.47	0.671	0.597	0.583	0.677	0.546	–	–	–	–	–
NCI-H2228	–	–	–	–	–	0.366	0.377	0.327	0.403	0.247	0.145	0.161	0.207	0.111	0.144	0.596	0.496	0.629	0.668	0.749
NCI-H1648	0.582	0.529	0.5	0.302	0.461	–	–	–	–	–	–	–	–	–	–	–	–	–	–	–
NCI-H1563	–	–	–	–	–	0.667	0.666	0.729	0.711	0.667	0.553	0.542	0.524	0.492	0.509	1.15	1.3	1.15	1.2	1.16
A549	0.237	0.284	0.252	0.232	0.343	0.116	0.0979	0.151	0.161	0.168	–	–	–	–	–	0.624	0.55	0.504	0.502	0.585
NCI-H522	0.658	0.655	0.472	0.498	0.599	0.551	0.686	0.376	0.327	0.265	1.29	1.22	1.11	0.644	0.586	–	–	–	–	–
NCI-H2170	0.495	0.514	0.462	0.441	0.481	0.377	0.384	0.432	0.378	0.378	0.607	0.79	0.753	0.725	0.793	–	–	–	–	–
NCI-H1623	–	–	–	–	–	0.465	0.408	0.514	0.525	0.378	0.64	0.601	0.503	0.499	0.554	–	–	–	–	–
SW 900	0.449	0.405	0.547	0.469	0.412	0.735	0.675	0.535	0.779	0.589	0.186	0.182	0.16	0.189	0.15	–	–	–	–	–
IA-LM	–	–	–	–	–	–	–	–	–	–	–	–	–	–	–	0.876	0.776	0.628	0.621	0.589
CAL-12T	–	–	–	–	–	0.551	0.627	0.544	0.629	0.575	0.393	0.895	0.315	0.303	0.404	0.841	0.826	0.779	0.733	0.826
EBC-1	–	–	–	–	–	–	–	–	–	–	–	–	–	–	–	1.04	0.949	1.02	0.867	0.852
